In general, Kd refers to the free concentration of one partner at which half of the binding sites on the other are occupied at equilibrium, for simple one-to-one binding. As a reminder, the IC50 is the concentration at which inhibition is half-maximal. By inhibition is commonly meant the relative decrease from the control value, in per cent.

We go through 18 compounds from patent US10975068B2, “6-aminopyridin-3-yl thiazoles as modulators of RORγT” (Janssen Pharmaceutica NV, priority 2016, dated 2021).

Each structure is given as a SMILES string. Read-outs that look alike come from different tables or passages of the source.

For assay [1], the target named is human RORγt ligand binding domain (RORγt LBD) (Homo sapiens (Human), UniProt P51449). In words: RORγt ThermoFluor® assay (thermal shift binding). Conditions: read-out: ThermoFluor® Assay, Kd. An outline of the steps: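 Binding was inferred from thermal stabilisation (ΔTm) of the E. coli-expressed RORγt LBD (0.065 mg/mL), monitored by 1,8-ANS (60 μM) emission at 500 nm during a 1 °C/min ramp. Buffer was Hepes 100 mM pH 7.0 with NaCl, GSH and Tween-20.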
Chain of human RORγt ligand binding domain (RORγt LBD) (P51449 other isoform, or with tags, fused parts or gaps): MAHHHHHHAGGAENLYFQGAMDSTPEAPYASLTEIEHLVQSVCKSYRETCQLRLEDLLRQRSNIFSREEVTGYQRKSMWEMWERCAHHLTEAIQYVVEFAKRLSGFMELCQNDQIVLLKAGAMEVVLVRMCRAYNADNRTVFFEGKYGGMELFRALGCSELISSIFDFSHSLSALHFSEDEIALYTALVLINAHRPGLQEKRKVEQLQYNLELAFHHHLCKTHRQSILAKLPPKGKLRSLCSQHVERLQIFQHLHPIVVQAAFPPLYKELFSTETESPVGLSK
A general note: In DSF a fluorescence change marks the thermal transition of the protein.

The next assay concerns the target full-length human RORγt (Homo sapiens (Human), UniProt P51449). In words: RORγt (full-length human) reporter assay, Conditions B or C. In kind it is cell-based. The note with it: for RORγt (FL) Reporter Assay B or C, % inhibition (value marked *): marked *: footnote not given; for IC50: read-out: RORγt (FL) Reporter Assay B or C, IC50; for inhibition at 3 µM: at 3 μM compound concentration, read-out: RORγt (FL) Reporter Assay B or C, % inhibition. An outline of the steps: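 Readout is dual luciferase: firefly (GAL4-driven) normalized to DMSO-only and saturating-reference controls, then to CMV-Renilla. Full-length human RORγt fused to GAL4-DBD was transiently expressed in HEK293T; compound exposure ran overnight (16-20 h) starting 4-6 h after transfection, final FBS 1.3%, DMSO 0.1%.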

Chain of full-length human RORγt (P51449 other isoform, or with tags, fused parts or gaps): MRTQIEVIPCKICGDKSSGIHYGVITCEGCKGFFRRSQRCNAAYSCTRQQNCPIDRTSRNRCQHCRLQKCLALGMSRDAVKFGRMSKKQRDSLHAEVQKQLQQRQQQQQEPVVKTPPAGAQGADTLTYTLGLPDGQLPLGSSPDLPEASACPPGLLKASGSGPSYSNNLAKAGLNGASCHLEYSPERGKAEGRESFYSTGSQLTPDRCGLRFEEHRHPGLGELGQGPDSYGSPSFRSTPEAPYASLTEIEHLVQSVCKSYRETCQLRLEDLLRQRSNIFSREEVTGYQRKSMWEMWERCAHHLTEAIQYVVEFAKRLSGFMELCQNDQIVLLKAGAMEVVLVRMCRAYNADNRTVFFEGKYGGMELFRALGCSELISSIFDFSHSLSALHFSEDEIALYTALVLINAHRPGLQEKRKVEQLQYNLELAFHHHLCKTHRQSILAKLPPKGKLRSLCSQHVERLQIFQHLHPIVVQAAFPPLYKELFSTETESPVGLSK

Turning to `CC[C@H](Nc1cc(C(F)F)c(-c2sc(C(=O)N[C@@H](C)[C@H](C)O)nc2C(=O)N2CCC[C@@H]2C)cn1)C(F)(F)F` (relative stereo) [Example 217, 5-(4-(Difluoromethyl)-6-(((S)-1,1,1-trifluorobutan-2-yl)amino)pyridin-3-yl)-N-((2S*,3S*)-3-hydroxybutan-2-yl)-4-((S)-2-methylpyrrolidine-1-carbonyl)thiazole-2-carboxamide], the Kd in assay [1] was found to be 3.2 nM. Also, at full-length human RORγt (Conditions B or C), the “RORγt (FL) Reporter Assay B or C, % inhibition (value marked *)” value (shortened to “RORγt … % inhibition (value marked *)”) was 109* % and the 50% inhibitory concentration (IC50) turned out to be 19 nM.
Turning to `C[C@H]1CCCN1C(=O)c1nc(C(=O)N[C@@H]2CCOC2)sc1-c1cnc(NC(C)(C)C)cc1C(F)(F)F` [Example 373, 5-[6-(tert-Butylamino)-4-(trifluoromethyl)-3-pyridyl]-4-[(2S)-2-methylpyrrolidine-1-carbonyl]-N-[(3R)-tetrahydrofuran-3-yl]thiazole-2-carboxamide], the equilibrium dissociation constant (Kd) in assay [1] amounted to 1.9 nM. On full-length human RORγt, the inhibition at 3 µM is 122% and the IC50 is 4.6 nM.
For `C[C@H](Nc1cc(C(F)F)c(-c2sc(C(=O)N[C@@H]3CC[C@H]3O)nc2C(=O)N2C3CCC2CC3)cn1)C(F)(F)F` (relative stereo) [Example 291, 4-((1s,4s)-7-Azabicyclo[2.2.1]heptane-7-carbonyl)-5-(4-(difluoromethyl)-6-(((S)-1,1,1-trifluoropropan-2-yl)amino)pyridin-3-yl)-N-((1R*,2R*)-2-hydroxycyclobutyl)thiazole-2-carboxamide], in that order: 6.9 nM, 113% and 120 nM.
As to `CCC(C)(C)Nc1cc(C(F)F)c(-c2sc(C(=O)NCC(C)(C)O)nc2C(=O)N2CCCC[C@@H]2C)cn1` [Example 95, (S)-5-(4-(Difluoromethyl)-6-(tert-pentylamino)pyridin-3-yl)-N-(2-hydroxy-2-methylpropyl)-4-(2-methylpiperidine-1-carbonyl)thiazole-2-carboxamide], in assay [1], the dissociation constant Kd is 0.15 nM. Also, on full-length human RORγt (Conditions B or C), the “RORγt … % inhibition (value marked *)” value is given as 109* % and the IC50 turned out to be 9.5 nM.
For `C[C@H](Nc1cc(C(F)F)c(-c2sc(C(=O)N[C@@H]3COC[C@@H]3O)nc2C(=O)N2CCC[C@@H]2C)cn1)C(F)(F)F` (single isomer, unassigned) [Example 159, 5-(4-(Difluoromethyl)-6-(((S)-1,1,1-trifluoropropan-2-yl)amino)pyridin-3-yl)-N-((3R*,4R*)-4-hydroxytetrahydrofuran-3-yl)-4-((S)-2-methylpyrrolidine-1-carbonyl)thiazole-2-carboxamide], the Kd in assay [1] is 22 nM. Further, the “RORγt (FL) Reporter Assay B or C, % inhibition (value marked ***)” value at full-length human RORγt (Conditions B or C, marked ***: footnote not given) is on record as 93*** %. Also, the IC50 at full-length human RORγt (Conditions B or C) was 32 nM.
`C[C@H]1CC(F)(F)CN1C(=O)c1nc(C(=O)N[C@H](C)C(C)(C)O)sc1-c1cnc(NC2(C)CCC2)cc1C(F)F` [Example 325, 4-((S)-4,4-Difluoro-2-methylpyrrolidine-1-carbonyl)-5-(4-(difluoromethyl)-6-((1-methylcyclobutyl)amino)pyridin-3-yl)-N—((R)-3-hydroxy-3-methylbutan-2-yl)thiazole-2-carboxamide]: the Kd in assay [1] is 1.2 nM. Besides, on full-length human RORγt, the inhibition at 3 µM was 96% and the IC50 was 120 nM.
Regarding `C[C@H]1CCCN1C(=O)c1nc(C(=O)N[C@H]2C[C@H](O)C2)sc1-c1cnc(NC(C)(C)C)cc1C(F)(F)F` [Example 258, 5-[6-(tert-Butylamino)-4-(trifluoromethyl)-3-pyridyl]-N-((1r,3S)-3-hydroxycyclobutyl)-4-[(2S)-2-methylpyrrolidine-1-carbonyl]thiazole-2-carboxamide], the Kd in assay [1] worked out at 3.5 nM. Besides, on full-length human RORγt, the inhibition at 3 µM is 110% and the concentration for half-maximal inhibition (IC50) amounted to 65 nM.
Turning to `C[C@H]1CCCCN1C(=O)c1nc(C(=O)NCC(C)(C)O)sc1-c1cnc(NC(C)(C)C)cc1C(F)(F)F` [Example 80, (S)-5-(6-(tert-Butylamino)-4-(trifluoromethyl)pyridin-3-yl)-N-(2-hydroxy-2-methylpropyl)-4-(2-methylpiperidine-1-carbonyl)thiazole-2-carboxamide], the Kd in assay [1] amounted to 0.19 nM. Also, at full-length human RORγt (Conditions B or C), the “RORγt … % inhibition (value marked *)” value was 111* % and the IC50 was found to be 4.7 nM.
Turning to `CC[C@H](Nc1cc(C(F)F)c(-c2sc(C(=O)N[C@H]3CCC[C@@H]3O)nc2C(=O)N2CCC[C@@H]2C)cn1)C(F)(F)F` [Example 229, 5-(4-(Difluoromethyl)-6-(((1S)-1-(trifluoromethyl)propyl)amino)-3-pyridyl)-N-((1S,2S)-2-hydroxycyclopentyl)-4-((2S)-2-methylpyrrolidine-1-carbonyl)thiazole-2-carboxamide], the Kd in assay [1] was 0.97 nM. Moreover, at full-length human RORγt (Conditions B or C), the “RORγt … % inhibition (value marked *)” value is on record as 83* % and the IC50 is 42 nM.
With `CC[C@H](Nc1cc(C(F)F)c(-c2sc(C(=O)N[C@H](C)[C@H](C)O)nc2C(=O)N2CCC[C@@H]2C)cn1)C(F)(F)F` (relative stereo) [Example 218, 5-(4-(Difluoromethyl)-6-(((S)-1,1,1-trifluorobutan-2-yl)amino)pyridin-3-yl)-N-((2R*,3S*)-3-hydroxybutan-2-yl)-4-((S)-2-methylpyrrolidine-1-carbonyl)thiazole-2-carboxamide], the Kd in assay [1] turned out to be 7.8 nM. Further, at full-length human RORγt (Conditions B or C), the “RORγt … % inhibition (value marked *)” value is given as 111* % and the IC50 was determined as 45 nM.
Take `C[C@H]1CCCN1C(=O)c1nc(C(=O)NCC(C)(O)C(F)(F)F)sc1-c1cnc(NC(C)(C)C)cc1C(F)(F)F` (stereo partly drawn) [Example 357, 5-(6-(tert-Butylamino)-4-(trifluoromethyl)pyridin-3-yl)-4-((S)-2-methylpyrrolidine-1-carbonyl)-N-(3,3,3-trifluoro-2-hydroxy-2-methylpropyl)thiazole-2-carboxamide]: the Kd in assay [1] is 1.2 nM. In addition, at full-length human RORγt, the inhibition at 3 µM stood at 106% and the IC50 stood at 12 nM.
For `C[C@H]1CC(F)(F)CN1C(=O)c1nc(C(=O)NCC(C)(C)O)sc1-c1cnc(NC(C)(C)C)cc1C(F)F` [Example 143, (S)-5-(6-(tert-Butylamino)-4-(difluoromethyl)pyridin-3-yl)-4-(4,4-difluoro-2-methylpyrrolidine-1-carbonyl)-N-(2-hydroxy-2-methylpropyl)thiazole-2-carboxamide], the Kd in assay [1] stood at 2.3 nM. Further, at full-length human RORγt (Conditions B or C), the “RORγt … % inhibition (value marked *)” value was 114* % and the IC50 amounted to 39 nM.
Regarding `C[C@H](Nc1cc(C(F)F)c(-c2sc(C(=O)NC3CS(=O)(=O)C3)nc2C(=O)N2CC(F)(F)C[C@@H]2C)cn1)C(F)(F)F` [Example 192, 4-((S)-4,4-Difluoro-2-methylpyrrolidine-1-carbonyl)-5-(4-(difluoromethyl)-6-(((S)-1,1,1-trifluoropropan-2-yl)amino)pyridine-3-yl)-N-(1,1-dioxidothietan-3-yl)thiazole-2-carboxamide], the Kd in assay [1] was found to be 2.8 nM. On full-length human RORγt (Conditions B or C), the “RORγt … % inhibition (value marked *)” value is 101* % and the IC50 was found to be 37 nM.
For `CC[C@H](Nc1cc(C(F)F)c(-c2sc(C(=O)N[C@H]3C[C@H](O)C3)nc2C(=O)N2C3CCC2CC3)cn1)C(F)(F)F` [Example 222, 4-((1s,4s)-7-Azabicyclo[2.2.1]heptane-7-carbonyl)-5-(4-(difluoromethyl)-6-(((1S)-1-(trifluoromethyl)propyl)amino)-3-pyridyl)-N-((1r,3S)-3-hydroxycyclobutyl)thiazole-2-carboxamide], in that order: 10 nM, 113* % and 12 nM.
On to `C[C@H]1CCCN1C(=O)c1nc(C(=O)NCC2(O)COC2)sc1-c1cnc(NC2CCCC2)cc1C(F)F` [Example 73, (S)-5-(6-(Cyclopentylamino)-4-(difluoromethyl)pyridin-3-yl)-N-((3-hydroxyoxetan-3-yl)methyl)-4-(2-methylpyrrolidine-1-carbonyl)thiazole-2-carboxamide], for which, in assay [1], the Kd was 11 nM. On full-length human RORγt (Conditions B or C), the “RORγt … % inhibition (value marked *)” value is on record as 104* % and the IC50 was found to be 74 nM.
In the case of `CC[C@@H](Nc1cc(C(F)F)c(-c2sc(C(=O)NCC(C)(C)O)nc2C(=O)N2C3CCC2CC3)cn1)C1CC1` (stereo in doubt) [Example 164], the Kd in assay [1] came to 4.6 nM. Besides, at full-length human RORγt (Conditions B or C), the “RORγt … % inhibition (value marked *)” value was 105* % and the IC50 came to 23 nM.
For the compound `CC(C)(C)CNc1cc(C(F)(F)F)c(-c2sc(C(=O)NCC(C)(C)O)nc2C(=O)N2C3CCC2CC3)cn1` [Example 84, 4-((1s,4s)-7-Azabicyclo[2.2.1]heptane-7-carbonyl)-N-(2-hydroxy-2-methylpropyl)-5-(6-(neopentylamino)-4-(trifluoromethyl)pyridin-3-yl)thiazole-2-carboxamide], the Kd in assay [1] was 1.2 nM. At full-length human RORγt (Conditions B or C), the “RORγt … % inhibition (value marked *)” value is recorded as 136* % and the IC50 stood at 18 nM.
For `C[C@H]1CCCN1C(=O)c1nc(C(=O)NCC(C)(C)O)sc1-c1cnc(NC2CCCC2(F)F)cc1C(F)(F)F` (stereo partly drawn) [Example 127, 5-(6-((2,2-Difluorocyclopentyl)amino)-4-(trifluoromethyl)pyridin-3-yl)-N-(2-hydroxy-2-methylpropyl)-4-((S)-2-methylpyrrolidine-1-carbonyl)thiazole-2-carboxamide], in that order: 6.2 nM, 114* % and 110 nM.
